The structures appear in SMILES notation. Read-outs that look alike come from different tables or passages of the source.

Broadly, the Kd is a measure of binding affinity in units of concentration. For orientation: IC50 means the concentration at which inhibition is half-maximal.

The target of experiment [1] is T1, FGF-2 (Homo sapiens, UniProt P09038). In words: Direct binding SPR with FGF-2 immobilized on CDH sensor chip. How it is done:
The direct binding of FGF‐2 to the HS mimetics was measured by surface plasmon resonance (SPR). FGF‐2 was immobilized on a carboxymethyl dextran high capacity (CDH) sensor chip surface through carbodiimide mediated coupling. O‐/N‐Sulfated (33), O‐sulfated (33 z) and N‐sulfated (33 m) pseudo‐hexasaccharides were selected as analytes in addition to the heparin polysaccharide (MW: 17.2 kDa). […] Seeberger and co‐workers studied the binding of HS hexasaccharides with FGF‐2 through a powerful glycan microarray technology.[36] […] The N‐acetylated, O‐sulfated hexasaccharide 35 gave binding of ≈20 % of that of heparin, while the hexasaccharide 36 having three N‐sulfates only gave the lowest signal (<2%) binding to FGF‐2. The trend of decreasing FGF‐2 affinity from N‐ and O‐sulfated, to O‐sulfated only, to N‐sulfated only sequences of HS hexasaccharides (34, 35, 36) correlates well with those of the pseudo‐hexasaccharides 33, 33 z, and 33 m.
Figure 3 a) The SPR sensorgram of FGF‐2 binding with compound 33. The concentrations of 33 from top to bottom curves were 750 nM, 500 nM, 250 nM, 100 nM, 10 nM, and 1 nM. Each experiment was repeated at least three times with the representative data shown. The vertical line indicates the time when the dissociation process started. b) Table of K D values determined for 33, 33 z, and 33 m through the FGF‐2 SPR binding assay. c) Structures of compounds 35–38.
Measurements of binding constants of pseudo-hexasaccharides 33, 33z, and 33m with FGF-2 […]
FGF-2 was immobilized on sensor chip by primary amine coupling reaction. The surface of a CDH sensor chip (FortéBio, Inc., Molecular Devices, USA) was activated using freshly mixed N-hydroxysuccimide (NHS; 0.05 M) and 1-(3-(dimethylamino)propyl)-ethylcarbodiimide (EDC; 0.2 M) (1/1,v/v) in water, followed by the injection of FGF -2 (50 µg/ml) in PBS buffer. The remaining active esters were quenched by ethanolamine (1.0 M). Solutions of various concentrations of pseudo-hexasaccharides 33, 33z, and 33m dissolved in 0.01% Tween 20 PBS buffer were injected over the FGF-2 chip at a flow rate of 30 µL/min, and the responses to binding were recorded .
Aqueous NaCl solution (2.0 M) was employed for regeneration to achieve baseline status after each run. Sensorgrams were evaluated using the Qdat program. The response data due to association and dissociation were processed in Qdat using a reference surface to correct for any bulk refractive index changes and blank injections for double referencing . The binding profiles were fit globally into a 1:2 interaction model. The KD values were calculated by the Qdat software.
Analysis of the inhibition of pseudo-hexasaccharides on heparin/FGF-2 interaction using […]

For experiment [2], the target named is T1, FGF-2. The experiment can be described thus: Competition SPR assay: inhibition of FGF-2 interaction with immobilized biotinylated heparin. Type of experiment: binding. To be noted: for IC50: immobilized biotinylated heparin, FGF-2 50 nM, read-out: IC50 (amount of mimetic needed to reduce the FGF-2 binding by 50 %). How it is done:
A competition SPR assay was performed to establish the SAR between the full panel of 27 HS‐like pseudo‐hexasaccharides and FGF‐2 (Figure 4). Biotinylated heparin was immobilized on the biosensor, and the pseudo‐hexasaccharides (10 μM) were mixed with FGF‐2 (50 nM) individually. […] The trend of 33, 33 z and 33 m in the order of decreasing FGF‐2 affinity is consistent with that observed in the direct binding SPR study (Figures 3 and S1). The IC50 values of several disaccharides and pseudo‐tetrasaccharides with FGF‐2 have also been measured. The disaccharides bound weakly with FGF‐2, and the fully sulfated pseudo‐tetrasaccharide gave the strongest binding among the pseudo‐tetrasaccharides tested, which in turn was much weaker than that of the pseudo‐hexasaccharide 33 (Figure S2).
Figure 4 Inhibition of 27 pseudo‐hexasaccharides (33, 33 a–z) on FGF‐2 interaction with heparin through a competition SPR assay. Biotinylated heparin was immobilized on the SPR biosensor. For the control well, FGF‐2 (50 nM) was flown over the sensor and the intensity of the signal due to FGF‐2 binding was set as a reference (100 %). […] Normalized FGF‐2 binding % was calculated based on the following formula: (signal intensity of FGF‐2/pseudo‐hexasaccharide)/(signal intensity of FGF‐2 only)×100 %. […]
FGF-2 was immobilized on sensor chip by primary amine coupling reaction. […] Solutions of various concentrations of pseudo-hexasaccharides 33, 33z, and 33m dissolved in 0.01% Tween 20 PBS buffer were injected over the FGF-2 chip at a flow rate of 30 µL/min, and the responses to binding were recorded .
Aqueous NaCl solution (2.0 M) was employed for regeneration to achieve baseline status after each run. Sensorgrams were evaluated using the Qdat program. […] The KD values were calculated by the Qdat software. […]
Heparin SPR chip was prepared by immobilizing biotinylated heparin on SA sensor chip (Cytiva, Uppsala, Sweden).[13] […] Normalized FGF - 2 binding % was calculated based on the following formula: (signal intensity o f FGF-2/pseudohexasaccharide)/(signal intensity of FGF -2 only) x 100%. […]

Experiment [3] concerns the target T1, FGF-2. Details: method as in PMID 17066397. The following applies: glycan microarray, glycan concentration 16 μM; cited from earlier work.
In experiment [4] the target is T1, FGF-2. Details: method as in PMID 28651046, PMID 24959968. The following applies: read-out: KD of FGF-2 binding; cited from earlier work.
[5] abbreviates: immobilized FGF-2, 1:2 interaction model, read-out: dissociation constant (KD) of binding to FGF-2.

T1 sequence (P09038 134-288 limits assumed, species assumed): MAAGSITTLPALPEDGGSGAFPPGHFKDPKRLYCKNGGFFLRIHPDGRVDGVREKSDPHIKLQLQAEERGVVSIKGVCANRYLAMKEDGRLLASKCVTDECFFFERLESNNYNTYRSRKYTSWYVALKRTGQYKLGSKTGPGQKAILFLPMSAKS

In the case of `CC(=O)NCCO[C@@H]1O[C@@H](C(=O)O)[C@@H](O[C@H]2O[C@H](CO)[C@@H](OCCC(=O)NCCO[C@@H]3O[C@@H](C(=O)O)[C@@H](O[C@H]4O[C@H](CO)[C@@H](OCCC(=O)NCCO[C@@H]5O[C@@H](C(=O)O)[C@@H](O[C@H]6O[C@H](CO)[C@@H](OCCC(=O)O)[C@H](O)[C@H]6NS(=O)(=O)O)[C@H](O)[C@H]5O)[C@H](O)[C@H]4NS(=O)(=O)O)[C@H](O)[C@H]3O)[C@H](O)[C@H]2NS(=O)(=O)O)[C@H](O)[C@H]1O` [33 m], the “binding to FGF-2 (in words)” value at FGF-2 [1] (immobilized FGF-2, at 3 μM) is “little binding”. Further, at FGF-2 [1] (immobilized FGF-2, value printed in μM under head KD value (nM), read-out: KD value), the Kd is above 3 µM. For the same compound, the “inhibition of FGF-2/heparin interaction (in words)” value at FGF-2 [2] (under the experimental condition) was “did not exhibit any inhibition”.
Consider `CC(=O)NCCO[C@@H]1O[C@@H](C(=O)O)[C@@H](O[C@H]2O[C@H](COS(=O)(=O)O)[C@@H](OCCC(=O)NCCO[C@@H]3O[C@@H](C(=O)O)[C@@H](O[C@H]4O[C@H](COS(=O)(=O)O)[C@@H](OCCC(=O)NCCO[C@@H]5O[C@@H](C(=O)O)[C@@H](O[C@H]6O[C@H](COS(=O)(=O)O)[C@@H](OCCC(=O)O)[C@H](O)[C@H]6NC(C)=O)[C@H](O)[C@H]5OS(=O)(=O)O)[C@H](O)[C@H]4NC(C)=O)[C@H](O)[C@H]3OS(=O)(=O)O)[C@H](O)[C@H]2NC(C)=O)[C@H](O)[C@H]1OS(=O)(=O)O` [33 z], for which the Kd at FGF-2 [1] (setting [5]) is 0.94 µM. In addition, at FGF-2 [2], the IC50 was around 100 µM.
On the same counts, the results for `CC(=O)NCCO[C@@H]1O[C@@H](C(=O)O)[C@@H](O[C@H]2O[C@H](COS(=O)(=O)O)[C@@H](OCCC(=O)NCCO[C@@H]3O[C@@H](C(=O)O)[C@@H](O[C@H]4O[C@H](COS(=O)(=O)O)[C@@H](OCCC(=O)NCCO[C@@H]5O[C@@H](C(=O)O)[C@@H](O[C@H]6O[C@H](COS(=O)(=O)O)[C@@H](OCCC(=O)O)[C@H](O)[C@H]6NS(=O)(=O)O)[C@H](O)[C@H]5OS(=O)(=O)O)[C@H](O)[C@H]4NS(=O)(=O)O)[C@H](O)[C@H]3OS(=O)(=O)O)[C@H](O)[C@H]2NS(=O)(=O)O)[C@H](O)[C@H]1OS(=O)(=O)O` [compound 33] are 0.0196 µM and 1.7 µM.
As for `NCCS(=O)(=O)CCCCCO[C@@H]1O[C@@H](C(=O)O)[C@@H](O[C@H]2O[C@H](COS(=O)(=O)O)[C@@H](O[C@@H]3O[C@@H](C(=O)O)[C@@H](O[C@H]4O[C@H](COS(=O)(=O)O)[C@@H](O[C@@H]5O[C@@H](C(=O)O)[C@@H](O[C@H]6O[C@H](COS(=O)(=O)O)[C@@H](O)[C@H](O)[C@H]6NS(=O)(=O)O)[C@H](O)[C@H]5OS(=O)(=O)O)[C@H](O)[C@H]4NS(=O)(=O)O)[C@H](O)[C@H]3OS(=O)(=O)O)[C@H](O)[C@H]2NS(=O)(=O)O)[C@H](O)[C@H]1OS(=O)(=O)O` [compound 34], the “binding to FGF-2 as compared to heparin polysaccharide” value on FGF-2 [3] is listed as “≈ 60%”.
As to `CC(=O)N[C@H]1[C@@H](O[C@H]2[C@H](O)[C@@H](OS(=O)(=O)O)[C@H](OCCCCCN)O[C@H]2C(=O)O)O[C@H](COS(=O)(=O)O)[C@@H](O[C@@H]2O[C@@H](C(=O)O)[C@@H](O[C@H]3O[C@H](COS(=O)(=O)O)[C@@H](O[C@@H]4O[C@@H](C(=O)O)[C@@H](O[C@H]5O[C@H](COS(=O)(=O)O)[C@@H](O)[C@H](O)[C@H]5NC(C)=O)[C@H](O)[C@H]4OS(=O)(=O)O)[C@H](O)[C@H]3NC(C)=O)[C@H](O)[C@H]2OS(=O)(=O)O)[C@@H]1O` [compound 35], the “binding to FGF-2 as compared to heparin polysaccharide” value at FGF-2 [3] is on record as “≈ 20%”.
On to `NCCCCCO[C@@H]1O[C@@H](C(=O)O)[C@@H](O[C@H]2O[C@H](CO)[C@@H](O[C@@H]3O[C@@H](C(=O)O)[C@@H](O[C@H]4O[C@H](CO)[C@@H](O[C@@H]5O[C@@H](C(=O)O)[C@@H](O[C@H]6O[C@H](CO)[C@@H](O)[C@H](O)[C@H]6NS(=O)(=O)O)[C@H](O)[C@H]5O)[C@H](O)[C@H]4NS(=O)(=O)O)[C@H](O)[C@H]3O)[C@H](O)[C@H]2NS(=O)(=O)O)[C@H](O)[C@H]1O` [compound 36], for which the “binding to FGF-2 as compared to heparin polysaccharide” value at FGF-2 [3] is on record as below 2%.
For the compound `CO[C@@H]1O[C@@H](C(=O)O)[C@@H](O[C@H]2O[C@H](COS(=O)(=O)O)[C@@H](O)[C@H](O)[C@H]2NS(=O)(=O)O)[C@H](O)[C@H]1OS(=O)(=O)O` [compound 37], the Kd on FGF-2 [4] is 17.5 µM.
As to `NCCCCCO[C@H]1O[C@H](COS(=O)(=O)O)[C@@H](O[C@@H]2O[C@@H](C(=O)O)[C@@H](O[C@H]3O[C@H](COS(=O)(=O)O)[C@@H](O[C@@H]4O[C@@H](C(=O)O)[C@@H](O)[C@H](O)[C@H]4O)[C@H](O)[C@H]3NS(=O)(=O)O)[C@H](O)[C@H]2OS(=O)(=O)O)[C@H](O)[C@H]1NS(=O)(=O)O` [compound 38], the Kd at FGF-2 [4] is 1.2 µM.
